Earlier results in patent EP4026540A1, “A FILM COATED TABLET COMPRISING APIXABAN” (SANOVEL ILAC SANAYI VE TICARET A.S., priority 2021, dated 2022).

Conditions: single 10 mg dose

oral bioavailability: about 50%
SMILES: COc1ccc(-n2nc(C(N)=O)c3c2C(=O)N(c2ccc(N4CCCCC4=O)cc2)CC3)cc1 [apixaban, 1-(4-methoxyphenyl)-7-oxo-6-[4-(2-oxopiperidin-1-yl)phenyl]-4,5,6,7-tetrahydro-1H-pyrazolo[3,4-c]pyridine-3-carboxamide]
